Read-outs that look alike come from different tables or passages of the source.
Legend:
[1] = biological target: BTK enzyme (recombinant full-length BTK, hBTK) (Homo sapiens (Human), UniProt Q06187); experiment: Btk enzyme activity assay, LANCE TR-FRET; assay type: biochemical; settings: 50 pM hBTK, 2 μM biotin-A5-peptide, 25 μM ATP; 60 minute compound & enzyme incubation; read-out: BTK binding IC50
Method: Btk Enzyme Activity Assay Methods
BTK enzymatic activity was determined with the LANCE (Lanthanide Chelate Excite) TR-FRET (Time-resolved fluorescence resonance energy transfer) assay. […] After 60 minutes incubation with detection reagents, reaction plates were read on a PerkinElmer EnVision plate reader using standard TR-FRET protocol.

HeLa cells = experiment: [3H] Adenosine uptake assay; assay type: cell-based; settings: accumulation of tritiated adenosine into HeLa cells, compound concentration range 10 μM to 0.032 nM, read-out: ADU inhibition IC50 (adenosine uptake inhibition potency)
Method: Compounds are also screen in an adenosine uptake functional cellular assay using the protocol described below:
[^3H] Adenosine Uptake Assay Methods
Adenosine uptake activity was determined by monitoring the accumulation of tritiated adenosine into HeLa cells (ATCC catalog #CCL-2) using a PMT-based radiometric detection instrument. […] These cells were incubated overnight at 37° C. in a humidified atmosphere with 5% (v/v) CO2. After this time the growth medium was removed and replaced with 40 μL assay medium comprising: Hanks balanced salts solution (HBSS; Thermo Fisher Catalog #SH30268.01)+5% (v/v) FBS. Compound stock solutions in DMSO were diluted in assay medium to 2.5× final compound concentration maintaining a constant DMSO concentration of 0.25% (v/v). 40 μL of compound in assay medium was dispensed into individual wells of the Cytostar-T plates and the plates were incubated for 30 minutes under ambient laboratory conditions. Following this incubation, 20 μL of 500 nM[^3H] adenosine (American Radiolabeled Chemicals Inc. Catalog #ART0287) in assay medium was added and incubated for a further 60 minutes under ambient laboratory conditions. The amount of radiolabel accumulation was then determined using a Perkin Elmer Topcount NXT microplate reader. In brief, HeLa cells adhere to the bottom of the Cytostar-T plate, uptake of [^3H]adenosine into these cells brings the radiolabel into sufficient proximity to excite the scintillant in the base of the plates. These events are captured by single PMT, time-resolved coincidence counting. IC50 values were determined by 4 parameter robust fit of counts per second values vs. (Log10) compound concentrations.

BTK enzyme (recombinant full-length BTK, hBTK), sequence (Q06187 whole entry): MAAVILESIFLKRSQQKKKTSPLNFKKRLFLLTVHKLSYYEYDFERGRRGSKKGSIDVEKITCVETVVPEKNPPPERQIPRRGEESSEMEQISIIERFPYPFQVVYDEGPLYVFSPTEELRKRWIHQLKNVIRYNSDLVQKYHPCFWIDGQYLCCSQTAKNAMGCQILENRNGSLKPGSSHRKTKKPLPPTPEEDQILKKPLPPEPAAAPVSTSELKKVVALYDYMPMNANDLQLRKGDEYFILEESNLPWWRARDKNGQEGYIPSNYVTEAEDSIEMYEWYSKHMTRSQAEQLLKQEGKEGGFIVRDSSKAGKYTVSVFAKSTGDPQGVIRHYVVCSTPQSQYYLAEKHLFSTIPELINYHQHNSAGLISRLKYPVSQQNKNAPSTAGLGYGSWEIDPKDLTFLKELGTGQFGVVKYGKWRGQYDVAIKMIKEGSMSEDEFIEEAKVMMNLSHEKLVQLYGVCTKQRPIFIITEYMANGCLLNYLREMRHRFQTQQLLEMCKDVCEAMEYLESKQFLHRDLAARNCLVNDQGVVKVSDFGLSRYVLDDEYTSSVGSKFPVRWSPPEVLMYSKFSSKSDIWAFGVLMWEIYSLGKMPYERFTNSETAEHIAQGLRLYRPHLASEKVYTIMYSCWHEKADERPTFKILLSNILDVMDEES

| IC50 [1] | Structure (SMILES) | also measured |
| --- | --- | --- |
| 2 nM | Nc1nccn2c(-c3ccc(C(=O)O)[nH]3)nc(-c3ccc(C(=O)Nc4cc(C(F)(F)F)ccn4)cc3)c12 [Example 27, 5-[8-amino-1-(4-{[4-(trifluoromethyl)pyridin-2-yl]carbamoyl}phenyl)imidazo[1,5-a]pyrazin-3-yl]-1H-pyrrole-2-carboxylic acid] | IC50 (HeLa cells; Homo sapiens, HeLa): 10000 nM |
| 2 nM | CCOc1cc(C(=O)Nc2cc(C(F)(F)F)ccn2)ccc1-c1nc([C@H]2CC[C@@H](C(C)C)[C@@H](C(=O)O)C2)n2ccnc(N)c12 [Example 101, (1S,2S,5S)-5-[8-amino-1-(2-ethoxy-4-{[4-(trifluoromethyl)pyridin-2-yl]carbamoyl}phenyl)imidazo[1,5-a]pyrazin-3-yl]-2-(1-methylethyl) cyclohexane-carboxylic acid] | IC50 (HeLa cells; Homo sapiens, HeLa): 10000 nM |
| 2.5 nM | CC(C)C1(C(=O)O)CCC(C)(c2nc(-c3ccc(C(=O)Nc4cc(C(F)(F)F)ccn4)cc3)c3c(N)nccn23)C1 (centres unmarked) [Example 144, 3-[8-amino-1-(4-{[4-(trifluoromethyl)pyridin-2-yl]carbamoyl}phenyl)imidazo[1,5-a]pyrazin-3-yl]-3-methyl-1-(1-methylethyl) cyclopentane-carboxylic acid] | IC50 (HeLa cells): 3010 nM |
| 2.6 nM | Nc1nccn2c([C@H]3CCN[C@@H](C(=O)O)C3)nc(-c3ccc(C(=O)Nc4cc(C(F)(F)F)ccn4)cc3)c12 [Example 31, (2R,4S)-4-[8-amino-1-(4-{[4-(trifluoromethyl)pyridin-2-yl]carbamoyl}phenyl)imidazo[1,5-a]pyrazin-3-yl]piperidine-2-carboxylic acid] |  |
| 1.7 nM | Nc1nccn2c([C@@H]3CCC[C@H](C(=O)O)C3)nc(-c3ccc(C(=O)Nc4cc(OC5CC5)ccn4)cc3)c12 [Example 12, (1S,3R)-3-[8-amino-1-(4-{[4-(cyclopropyloxy)pyridin-2-yl]carbamoyl}phenyl)imidazo [1,5-a]pyrazin-3-yl]cyclohexane-carboxylic acid] |  |
| 1.5 nM | C[C@H]1CO[C@@H](c2nc(-c3ccc(C(=O)Nc4cc(C5CC5)ccn4)cc3F)c3c(N)nccn23)CN1[C@H]1CC[C@](C)(C(=O)O)CC1 [Example 210, trans-4-[(2R,5S)-2-(8-amino-1-{4-[(4-cyclopropylpyridin-2-yl)carbamoyl]-2-fluorophenyl}imidazo[1,5-a]pyrazin-3-yl)-5-methylmorpholin-4-yl]-1-methylcyclohexanecarboxylic acid] | IC50 (HeLa cells; Homo sapiens, HeLa): 6270 nM |
| 40.9 nM | COc1cc(C(=O)Nc2cc(C(F)(F)F)ccn2)ccc1-c1nc([C@H]2CCC[C@@H](C(=O)O)C2)n2ccnc(N)c12 [Example 5, (1R,3S)-3-[8-amino-1-(2-methoxy-4-{[4-(trifluoromethyl)pyridin-2-yl]carbamoyl}phenyl)imidazo [1,5-a]pyrazin-3-yl]cyclohexane-carboxylic acid] |  |
| 2.8 nM | C[C@]1(C(=O)O)CCC[C@@H](c2nc(-c3ccc(C(=O)Nc4cc(C5CC5)ccn4)cc3)c3c(N)nccn23)C1 [Example 155, (1S,3R)-3-(8-amino-1-{4-[(4-cyclopropylpyridin-2-yl)carbamoyl]phenyl}imidazo[1,5-a]pyrazin-3-yl)-1-methylcyclohexane-carboxylic acid] |  |
| 1.7 nM | C[C@]1(C(=O)O)CCC[C@@H](c2nc(-c3ccc(C(=O)Nc4cc(C5CC5)ccn4)cc3F)c3c(N)nccn23)C1 [Example 156, (1S,3R)-3-(8-amino-1-{4-[(4-cyclopropylpyridin-2-yl)carbamoyl]-2-fluorophenyl}imidazo [1,5-a]pyrazin-3-yl)-1-methylcyclohexane-carboxylic acid] |  |
| 29.5 nM | Nc1nccn2c([C@H]3CCC[C@@H](C(=O)O)C3)nc(-c3ccc(C(=O)Nc4cc(C5CC5)ccn4)cc3)c12 [Example 4, (1R,3S)-3-(8-amino-1-{4-[(4-cyclopropyl-pyridin-2-yl)carbamoyl]phenyl}imidazo [1,5-a]pyrazin-3-yl)cyclohexane-carboxylic acid] |  |
| 1.4 nM | CCc1ccnc(NC(=O)c2ccc(-c3nc([C@@H]4CCC[C@H](C(=O)O)C4)n4ccnc(N)c34)cc2)c1 [Example 7, (1S,3R)-3-(8-amino-1-{4-[(4-ethylpyridin-2-yl)carbamoyl]phenyl}imidazo [1,5-a]pyrazin-3-yl)cyclohexane-carboxylic acid] |  |
| 8.6 nM | Nc1nccn2c([C@H]3CN(C(=O)C4(C(=O)O)CCC4)CCO3)nc(-c3ccc(C(=O)Nc4cc(C(F)(F)F)ccn4)cc3F)c12 [Example 178, 1-({(2R)-2-[8-amino-1-(2-fluoro-4-{[4-(trifluoromethyl)pyridin-2-yl]carbamoyl}phenyl)imidazo [1,5-a]pyrazin-3-yl]morpholin-4-yl}carbonyl)cyclobutane-carboxylic acid] |  |
|  | Nc1nccn2c([C@H]3CC[C@@H](C(=O)O)C3)nc(-c3ccc(C(=O)Nc4cc(C(F)(F)F)ccn4)cc3)c12 [Example 14, (1R,3S)-3-(8-amino-1-(4-((4-(trifluoromethyl)pyridin-2-yl)carbamoyl)phenyl)imidazo[1,5-a]pyrazin-3-yl)cyclopentanecarboxylic acid] | IC50 (HeLa cells; Homo sapiens): 2500 nM |
|  | CC(C)[C@]1(C(=O)O)CC[C@@H](c2nc(-c3ccc(C(=O)Nc4cc(C(F)(F)F)ccn4)cc3)c3c(N)nccn23)C1 [Example 46, (1S,3R)-3-[8-amino-1-(4-{[4-(trifluoromethyl)pyridin-2-yl]carbamoyl}phenyl)imidazo[1,5-a]pyrazin-3-yl]-1-(1-methylethyl) cyclopentane carboxylic acid] | IC50 (HeLa cells; Homo sapiens): 4000 nM |
| 2.1 nM | Nc1nccn2c([C@@H]3CCC[C@H](C(=O)O)C3)nc(-c3ccc(C(=O)Nc4cc(C5CC5)ccn4)cc3)c12 [Example 8, (1S,3R)-3-(8-amino-1-{4-[(4-cyclopropyl-pyridin-2-yl)carbamoyl]phenyl}imidazo [1,5-a]pyrazin-3-yl)cyclohexane-carboxylic acid] |  |
|  | Nc1nccn2c1c(-c1ccc(C(=O)Nc3cc(C(F)(F)F)ccn3)cc1)nc2[C@H]1CC[C@@H](C(=O)O)CC1 [Example 158, cis-4-[8-amino-1-(4-{[4-(trifluoromethyl)pyridin-2-yl]carbamoyl}phenyl)imidazo[1,5-a]pyrazin-3-yl]cyclohexane-carboxylic acid] | IC50 (HeLa cells; Homo sapiens): 10000 nM |
|  | Nc1nccn2c([C@@H]3C[C@@H]4[C@H](C3)[C@@H]4C(=O)O)nc(-c3ccc(C(=O)Nc4cc(C(F)(F)F)ccn4)cc3)c12 [Example 124, (1R,3r,5S,6s)-3-[8-amino-1-(4-{[4-(trifluoromethyl)pyridin-2-yl]carbamoyl}phenyl)imidazo[1,5-a]pyrazin-3-yl]bicyclo[3.1.0] hexane-6-carboxylic acid] | IC50 (HeLa cells; Homo sapiens): 6120 nM |
| 1.6 nM | COc1cc(C(=O)Nc2cc(C(F)(F)F)ccn2)ccc1-c1nc([C@@H]2CCC[C@H](C(=O)O)C2)n2ccnc(N)c12 [Example 11, (1S,3R)-3-[8-amino-1-(2-methoxy-4-{[4-(trifluoromethyl)pyridin-2-yl]carbamoyl}phenyl)imidazo [1,5-a]pyrazin-3-yl]cyclohexane-carboxylic acid] |  |
|  | C[C@@]1(C(=O)O)CC[C@H](c2nc(-c3ccc(C(=O)Nc4cc(C(F)(F)F)ccn4)cc3)c3c(N)nccn23)C1 [Example 40, (1R,3S)-3-[8-amino-1-(4-{[4-(trifluoromethyl)pyridin-2-yl]carbamoyl}phenyl)imidazo[1,5-a]pyrazin-3-yl]-1-methylcyclopentane-carboxylic acid] | IC50 (HeLa cells; Homo sapiens): 5280 nM |

From patent US10087188B2, “Benzamide imidazopyrazine Btk inhibitors” (MERCK SHARP & DOHME CORP., priority 2014, dated 2018)
